From US5446058A, “(Fused) benz(thio)amides” (Ono Pharmaceutical Co., Ltd., priority 1984, dated 1995)
Read-outs that look alike come from different tables or passages of the source.

What was measured:
LTD4 = assay: Antagonistic activity on LTD4 in vitro (contraction of isolated ilem in a Magnus tube); conditions: antagonism of LTD4, guinea pig ilem, 5×10^-9 g/ml LTD4, 37° C.
Method: Antagonistic activity of the compounds of the present invention on LTD4 were measured by the following method.
A segment of ilem (2.5 cm) was removed from guinea pig 300-400 g and suspended in a Magnus tube containing Tyrodes solution. The tube was maintained at 37° C. and aerated with 95% O2 -5% CO2. After stabilizing from 30 mins, 5×10^-9 g/ml of LTD4 was added to the Magnus tube. Contraction length at the time and contraction lengths when the compounds of the present invention were challenged at some concentrations were measured, and the IC50 value were calculated.

[1] = Acute toxicity (LD50), intravenous, male mice; conditions: mouse, in vivo, intravenous administration
5α-reductase = assay: Inhibitory activity on 5α-reductase in vitro; format: biochemical; conditions: [4-14C]testosterone 5 μM, NADPH 5×10^-3 M, pH 7.4, 37° C., 60 mins; read-out: IC50, inhibitory activity on 5α-reductase (Table VII)
Method: Inhibitory activity of the compounds of the present invention on 5α-reductase was measured by the following method.
Inhibitory activity of the compounds of the present invention on 5α-reductase (IC50) in vitro was measured by the following method.
Compounds tested were incubated with radioactive [4-^14 C]testosterone (5 μM) and NADPH (5×10^-3 M) in the medium containing 5α-reductase, 0.09M Hepes (pH 7.4) and 0.22M sucrose at 37° C. for 60 mins. The reaction was stopped by adding solution of chloroform-methanol (1:2). The reaction mixture was centrifuged and the supernatant was separated by thin layer chromatography on silica gel using chloroform-methanol-acetic acid (99.2:0.6:0.2) as a developing solvent. Radioactivity of formed 5α-dihydrotestosterone was measured by TLC scanner. The values of IC50 were determined by the inhibition percents of 5α-reductase activity measured by the above procedure (see Endocrinal, Japon., 18, 179 (1971).).

[2] = read-out: IC50 (Table VI, comparison of activity by skeleton structure change (3))
[3] = read-out: IC50 (Table III, comparison of activity by alkylene chain change)
[4] = read-out: IC50 (Table V, comparison of activity by skeleton structure change (2))
[5] = read-out: IC50 (Table IV, comparison of activity by skeleton structure change (1))

O=C(Nc1cccc2ccc(-c3nn[nH]n3)cc12)c1ccc(OCCCCc2ccccc2)cc1 [1 (514)]
IC50 (LTD4; [2]): 4.6 nM

C=CCCC/C=C/COc1ccc(C(=O)Nc2cc(C)cc3c(=O)cc(-c4nn[nH]n4)oc23)cc1 [1(247)]
LD50 [1]: > 1000 mg/kg

O=C(Nc1cccc2c1OC(c1nnn[nH]1)CO2)c1ccc(OCCCCc2ccccc2)cc1 (centres unmarked) [1(76)]
LD50 [1]: > 1000 mg/kg

CCCCCc1ccc(CCC(=O)Nc2cccc3c2OC(c2nn[nH]n2)CO3)cc1 (centres unmarked)
IC50 (LTD4; [3]): 660 nM

CCCCCc1ccc(C(=O)Nc2cccc3c2OC(C(=O)O)CO3)cc1 (centres unmarked)
IC50 (LTD4; [4]): 1200 nM

O=C(Nc1cccc2c1OC(c1nn[nH]n1)CC2)c1ccc(OCCCCc2ccccc2)cc1 (centres unmarked) [1 (521)]
IC50 (LTD4; [2]): 1.3 nM

CCCCCc1ccc(C(=O)Nc2cccc3c2OC(c2nn[nH]n2)CO3)cc1 (centres unmarked) [drawing 49]
IC50 (LTD4; [4]): 2600 nM

CCCCCc1ccc(C(=O)Nc2cccc3c2OC(c2nn[nH]n2)CO3)cc1 (centres unmarked) [drawing 40]
IC50 (LTD4; [3]): 2600 nM

CCCCCc1ccc(C(=O)Nc2cccc3c(=O)cc(-c4nn[nH]n4)oc23)cc1
IC50 (LTD4; [4]): 180 nM

CCCCCc1ccc(CC(=O)Nc2cccc3c2OC(c2nn[nH]n2)CO3)cc1 (centres unmarked)
IC50 (LTD4; [3]): 8300 nM

CCCCCCOc1ccc(C(=O)Nc2cccc3cc(-c4nn[nH]n4)oc23)cc1 [1 (501)]
IC50 (LTD4; [2]): 76 nM

CCCCCCOc1ccc(C(=O)Nc2cccc3c2OC(c2nn[nH]n2)C3)cc1 (centres unmarked) [1 (505)]
IC50 (LTD4; [2]): 205 nM

CCCCCCCCCCCCC/C=C/C(=O)Nc1cccc2c1OC(c1nn[nH]n1)CO2 (centres unmarked)
IC50 (LTD4; [3]): 20000 nM

C=CCCCC=CCOc1ccc(C(=O)Nc2cccc3c2OC(c2nn[nH]n2)CCO3)cc1 (centres unmarked) [1 (518)]
IC50 (LTD4; [2]): 33 nM

O=C(Nc1cccc2c(=O)cc(-c3nnn[nH]3)oc12)c1ccc(OCCCCc2ccccc2)cc1 [1(230)]
LD50 [1]: > 1000 mg/kg

CCCCCc1ccc(/C=C/C(=O)Nc2cccc3c(=O)cc(-c4nn[nH]n4)oc23)cc1
IC50 (LTD4; [5]): 30 nM

C=CCCC/C=C/COc1ccc(C(=O)Nc2cccc3c(=O)cc(-c4nn[nH]n4)oc23)cc1 [1(212)]
LD50 [1]: > 1000 mg/kg

CCCCCc1ccc(/C=C/C(=O)Nc2cccc3c2OC(c2nn[nH]n2)CO3)cc1 (centres unmarked)
IC50 (LTD4; [5]): 370 nM

CCCCCc1ccc(C=CC(=O)Nc2ccccc2OCCCC(=O)O)cc1 [6(1)]
IC50 (5α-reductase): 5000 nM

CCCc1ccc(/C=C/C=C/C(=O)Nc2cccc3c2OC(c2nn[nH]n2)CO3)cc1 (centres unmarked)
IC50 (LTD4; [3]): 74 nM

CCCCCc1ccc(/C=C/C(=O)Nc2cccc3c2SC(c2nn[nH]n2)CS3)cc1 (centres unmarked)
IC50 (LTD4; [5]): 690 nM

O=C(Nc1cccc2ccc(-c3nn[nH]n3)nc12)c1ccc(OCCCCc2ccccc2)cc1 [1 (516)]
IC50 (LTD4; [2]): 2.6 nM

CCCCCc1ccc(C(C)=CC(=O)Nc2ccccc2SCCCC(=O)O)cc1 [4(206)]
IC50 (5α-reductase): 4000 nM
